Results taken from publication PMC12016938, “A small molecule PKCε inhibitor reduces hyperalgesia induced by paclitaxel or opioid withdrawal” (JCI Insight, 2025).
“And” between values parts separate entries of the source, which are not always exact repeats. Identical values can stand only once. Counter-ions that a name gives are not always drawn.

Tested on: self-administration (addictive potential)
Experiment: I.v. self-administration of CP612, between-session progressive ratio and demand curve
Method: We tested the addictive potential of CP612 by examining the extent to which rats are willing to work to obtain CP612. Rats were initially trained to self-administer either saline, morphine (500 μg/kg/i.v. infusion), or 1 of 3 different doses of CP612 (75, 150, or 300 μg/kg/i.v. infusion) for 4 days at fixed ratio 1 (FR1, where 1 nose poke delivers 1 infusion).
During the second phase, the ratio to obtain an infusion increased geometrically every other day (FR1, FR3, FR6, FR12, FR24, FR48, and FR96).
Data (number of self-infusions) were also fitted in an economic-demand curve, which provides an estimate of the motivation to obtain drugs and their addictive potential ([20]). We measured elasticity (α), which is the relative change in consumption as a function of price (i.e., ratio of nose pokes required to obtain an infusion). Behavior is considered “inelastic” when consumption is insensitive to price and “elastic” when consumption is sensitive to price. We also measured Pmax, which is the price at which intake switches from inelastic to elastic. […] (Figure 8B).
Rats not immediately anesthetized were eliminated from the study.
Following this initial acquisition phase at FR1, the ratio to obtain the drug was increased geometrically every other day: FR3 (3 nose pokes are required to obtain 1 infusion of morphine), FR6, FR12, FR24, FR48, and FR96. This allows for analysis of drug consumption as a function of “price” using demand curves for behavioral economics, which can estimate the motivation to obtain drugs and their “addictive potential” ([20]). For this, data from each rat were fitted to the equation log Q = log Q0 + k (e ^–α(Q0 ^C) – 1), where Q represents consumption (number of self-infusions), and Q0 represents the level of consumption at the lowest price. C represents price for the drug (i.e., the ratio), and k is set to a constant accounting for the estimated range of consumption in logarithmic units (k = 4 in these studies). The symbol α is the relative change in consumption across changes in price (ratio). Behavior is considered “inelastic” when consumption is insensitive to price (i.e., the curve is flat, and consumption is maintained despite increases in price), and it switches to “elastic” when consumption is sensitive to price (i.e., when the curve is steep and consumption declines with increases in price). […] We also compared groups for their average intake in the consumption-price curves by measuring α (elasticity) and Pmax.

[1] = morphine, individual rats, column in the AH block

Structure (SMILES): CN1CC[C@]23c4c5ccc(O)c4O[C@H]2[C@@H](O)C=C[C@H]3[C@H]1C5 [Morphine, Morphine sulfate, reference compound]
- AVG Latency (FR3) (morphine, individual rats): 0.17 and 0.173 and 1.3 and 0.2 and 0.6 and 1.9
- AVG Latency (FR6) (morphine, individual rats): 1.3 and 0.175 and 0.8 and 2.9 and 1.1 and 1.4
- AVG Latency (FR12) (morphine, individual rats): 0.435 and 0.663 and 0.7 and 0.227 and 2.8 and 2.7
- AVG Latency (FR24) (morphine, individual rats): 1.2 and 0.75 and 0.9 and 0.754 and 0.6 and 2.4
- AVG Latency (FR48) (morphine, individual rats): 0.8 and 0.428 and 0.738 and 0.951 and 1.0
- AVG Latency (FR96) (morphine, individual rats): 0.9 and 0.7 and 1.4 and 0.6 and 1.6
- D1 AH (FR1) (morphine, individual rats): 15 and 13 and 16 and 19 and 12
- D1 AH (FR3) (morphine, individual rats): 44 and 27 and 25 and 19 and 17 and 29
- D1 AH (FR6) (morphine, individual rats): 38 and 54 and 48 and 37 and 30 and 17
- D1 AH (FR12) (morphine, individual rats): 76 and 90 and 97 and 95 and 40 and 39
- D1 AH (FR24) (morphine, individual rats): 167 and 144 and 79 and 198 and 125 and 58
- D1 AH (FR48) (morphine, individual rats): 269 and 254 and 72 and 297 and 145 and 69
- D1 AH (FR96) (morphine, individual rats): 243 and 334 and 76 and 204 and 237 and 36
- D1 IH (FR1) (morphine, individual rats): 11 and 22 and 18 and 9 and 7
- D1 IH (FR3) (morphine, individual rats): 16 and 9 and 5 and 2 and 13 and 11
- D1 IH (FR6) (morphine, individual rats): 3 and 5 and 7 and 18 and 10
- D1 IH (FR12) (morphine, individual rats): 10 and 5 and 16 and 3 and 7
- D1 IH (FR24) (morphine, individual rats): 14 and 6 and 19 and 5 and 10
- D1 IH (FR48) (morphine, individual rats): 8 and 18 and 11 and 9 and 7 and 12
- D1 IH (FR96) (morphine, individual rats): 9 and 26 and 16 and 12 and 28
- D1 Inf (FR1) (morphine, individual rats): 9 and 8 and 12 and 10
- D1 Inf (FR3) (morphine, individual rats): 11 and 8 and 5 and 4
- D1 Inf (FR6) (morphine, individual rats): 6 and 7 and 4 and 2
- D1 Inf (FR12) (morphine, individual rats): 6 and 7 and 3
- D1 Inf (FR24) (morphine, individual rats): 6 and 5 and 3 and 8 and 4 and 2
- D1 Inf (FR48) (morphine, individual rats): 5 and 1 and 2
- D1 Inf (FR96) (morphine, individual rats): 2 and 3 and 0
- D1 Latency (FR1) (morphine, individual rats): 9.3 and 15.1 and 26.3 and 3.9 and 5.9 and 0.853
- D1 Latency (FR3) (morphine, individual rats): 0.238 and 0.2 and 1.5 and 0.9 and 0.358
- D1 Latency (FR6) (morphine, individual rats): 0.072 and 0.225 and 1.0 and 0.4 and 0.178 and 1.6
- D1 Latency (FR12) (morphine, individual rats): 0.038 and 1.0 and 0.6 and 0.032 and 1.6 and 1.2
- D1 Latency (FR24) (morphine, individual rats): 1.5 and 0.075 and 0.5 and 0.328 and 0.538 and 3.9
- D1 Latency (FR48) (morphine, individual rats): 0.107 and 0.4 and 0.5 and 1.0 and 1.4 and 1.2
- D1 Latency (FR96) (morphine, individual rats): 0.7 and 0.8 and 1.4 and 0.438 and 2.3
- D2 AH (FR1) (morphine, individual rats): 16 and 10 and 8 and 18 and 17
- D2 AH (FR3) (morphine, individual rats): 43 and 31 and 37 and 17 and 20 and 19
- D2 AH (FR6) (morphine, individual rats): 49 and 53 and 43 and 40 and 32 and 25
- D2 AH (FR12) (morphine, individual rats): 48 and 86 and 32 and 113 and 38 and 44
- D2 AH (FR24) (morphine, individual rats): 162 and 155 and 80 and 176 and 120 and 64
- D2 AH (FR48) (morphine, individual rats): 196 and 251 and 75 and 213 and 125 and 57
- D2 AH (FR96) (morphine, individual rats): 164 and 368 and 38 and 192 and 184 and 36
- D2 IH (FR1) (morphine, individual rats): 9 and 4 and 12 and 6 and 11
- D2 IH (FR3) (morphine, individual rats): 4 and 6 and 12 and 14 and 17 and 7
- D2 IH (FR6) (morphine, individual rats): 10 and 9 and 13 and 8 and 12
- D2 IH (FR12) (morphine, individual rats): 12 and 14 and 22 and 7 and 1
- D2 IH (FR24) (morphine, individual rats): 8 and 14 and 11 and 10 and 7
- D2 IH (FR48) (morphine, individual rats): 9 and 13 and 27 and 12 and 14
- D2 IH (FR96) (morphine, individual rats): 8 and 11 and 15 and 13 and 24
- D2 Inf (FR1) (morphine, individual rats): 11 and 9 and 7 and 10 and 12
- D2 Inf (FR3) (morphine, individual rats): 10 and 9 and 11 and 5
- D2 Inf (FR6) (morphine, individual rats): 8 and 7 and 6 and 4
- D2 Inf (FR12) (morphine, individual rats): 4 and 6 and 2 and 9 and 3
- D2 Inf (FR24) (morphine, individual rats): 6 and 3 and 7 and 4 and 2
- D2 Inf (FR48) (morphine, individual rats): 4 and 5 and 1 and 2
- D2 Inf (FR96) (morphine, individual rats): 1 and 3 and 0
- D2 Latency (FR1) (morphine, individual rats): 0.152 and 0.662 and 1.3 and 0.455 and 0.133 and 2.0
- D2 Latency (FR3) (morphine, individual rats): 0.1 and 0.137 and 1.1 and 0.19 and 0.327 and 3.5
- D2 Latency (FR6) (morphine, individual rats): 2.5 and 0.125 and 0.7 and 5.3 and 1.9 and 1.1
- D2 Latency (FR12) (morphine, individual rats): 0.8 and 0.372 and 0.7 and 0.422 and 4.1
- D2 Latency (FR24) (morphine, individual rats): 0.9 and 1.4 and 1.3 and 1.2 and 0.7 and 0.8
- D2 Latency (FR48) (morphine, individual rats): 1.4 and 0.457 and 1.0 and 0.9 and 0.543 and 0.367
- D2 Latency (FR96) (morphine, individual rats): 1.1 and 0.555 and 1.4 and 0.748 and 0.66 and 1.0
- D3 AH (FR1) (morphine, individual rats): 24 and 13 and 8 and 20 and 17
- D3 IH (FR1) (morphine, individual rats): 18 and 4 and 15 and 3 and 20 and 8
- D3 Inf (FR1) (morphine, individual rats): 10 and 7 and 14
- D3 Latency (FR1) (morphine, individual rats): 0.3 and 0.137 and 7.8 and 0.352 and 0.9 and 0.327
- D4 AH (FR1) (morphine, individual rats): 23 and 12 and 13 and 17 and 15
- D4 IH (FR1) (morphine, individual rats): 3 and 5 and 8 and 6 and 9
- D4 Inf (FR1) (morphine, individual rats): 13 and 10 and 11 and 9 and 8
- D4 Latency (FR1) (morphine, individual rats): 0.06 and 0.143 and 4.0 and 0.342 and 1.1
- last AH (FR1) (morphine, individual rats): 21 and 12 and 18 and 22 and 14 and 10
- last IH (FR1) (morphine, individual rats): 4 and 1 and 3 and 7 and 9
- last Inf (FR1) (morphine, individual rats): 15 and 10 and 12 and 17 and 9 and 7
- last Latency (FR1) (morphine, individual rats): 0.5 and 0.7 and 2.0 and 0.017 and 0.4 and 1.1
- last-1 AH (FR1) (morphine, individual rats): 23 and 12 and 13 and 17 and 15
- last-1 IH (FR1) (morphine, individual rats): 3 and 5 and 8 and 6 and 9
- last-1 Inf (FR1) (morphine, individual rats): 13 and 10 and 11 and 9 and 8
- last-1 Latency (FR1) (morphine, individual rats): 0.06 and 0.143 and 4.0 and 0.342 and 1.1
- last-2 AH (FR1) (morphine, individual rats): 24 and 13 and 8 and 20 and 17
- last-2 IH (FR1) (morphine, individual rats): 18 and 4 and 15 and 3 and 20 and 8
- last-2 Inf (FR1) (morphine, individual rats): 10 and 7 and 14
- last-2 Latency (FR1) (morphine, individual rats): 0.3 and 0.137 and 7.8 and 0.352 and 0.9 and 0.327
- last-3 AH (FR1) (morphine, individual rats): 24 and 13 and 8 and 18 and 10 and 17
- last-3 IH (FR1) (morphine, individual rats): 18 and 4 and 12 and 6 and 11
- last-3 Inf (FR1) (morphine, individual rats): 10 and 7 and 11 and 12
- last-3 Latency (FR1) (morphine, individual rats): 0.3 and 0.137 and 1.3 and 0.455 and 0.133 and 2.0
- AVG Inf (FR1_D1 to D4) [1]: 19.5 and 12.0 and 11.0 and 16.8 and 14.8 and 15.3
- AVG Inf (FR1_Last 2 FR1 days) [1]: 22.0 and 12.0 and 15.5 and 17.5 and 12.5
- AVG Inf (FR1_Last 4 FR1 days) [1]: 23.0 and 12.5 and 11.8 and 18.3 and 13.5 and 14.8
- AVG AH (FR3) (per-rat average): 24.0 and 20.5 and 23.0
- AVG AH (FR6) (per-rat average): 55.0 and 42.0 and 46.5
- AVG AH (FR12) (per-rat average): 107.5 and 82.0 and 88.0
- AVG AH (FR24) (per-rat average): 143.0 and 145.0 and 172.0
- AVG AH (FR48) (per-rat average): 138.0 and 149.0 and 142.5
- AVG AH (FR96) (per-rat average): 116.5 and 141.0 and 156.0
- AVG IH (FR1_Last 2 FR1 days) (per-rat average): 1.5 and 3.0
- AVG IH (FR6) (per-rat average): 4.5 and 8.5 and 7.5
- AVG IH (FR48) (per-rat average): 16.0 and 12.0 and 23.5
- AVG Inf (FR1_D1 to D4) (per-rat average): 6.0 and 7.3 and 9.3
- AVG Inf (FR1_Last 2 FR1 days) (per-rat average): 6.5 and 7.5
- AVG Inf (FR1_Last 4 FR1 days) (per-rat average): 6.0 and 7.0 and 8.3
- AVG Inf (FR3) (per-rat average): 7.5 and 5.5 and 7.0
- AVG Inf (FR6) (per-rat average): 8.0 and 6.5 and 7.0
- AVG Inf (FR12) (per-rat average): 8.5 and 5.5 and 6.5
- AVG Inf (FR24) (per-rat average): 5.0 and 5.5 and 6.5
- AVG Inf (FR48) (per-rat average): 2.5
- AVG Inf (FR96) (per-rat average): 1.0
- AVG Latency (FR1_D1 to D4) (per-rat average): 0.7 and 1.3 and 0.8
- AVG Latency (FR3) (per-rat average): 0.3 and 0.6 and 0.339
- AVG Latency (FR96) (per-rat average): 0.8 and 0.7 and 0.9
